Our source for the IC50 and EC50 values is patent US20110230476A1, “PI3 KINASE INHIBITORS AND USES THEREOF” (AVILA THERAPEUTICS, INC., priority 2009, published 2011).

One assay concerns the target T1, PI3Kα (p110α/p85α) (Homo sapiens, UniProt P42336).
T1 construct: purchased BPS Bioscience (San Diego, Calif.) or Millipore (Billerica, Mass.)
Description: HTRF assay, potency against active PI3Kα. As to conditions: HTRF; [ATP]=50 μM, [di-C8-PIP2]=10 μM; 30 min pre-incubation; read-out: PI3Kα Inhibition. Format: biochemical. In outline:
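IC50 came from a variable-slope fit of % inhibition, calculated from the HTRF emission ratio relative to wells with and without enzyme. Reactions with the active enzyme complex ran 30-60 minutes at 25 °C after ATP addition before stop and detection reagents.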

In the next assay the test system is Phospho-Akt(Ser473). Description: Dose response in SKOV3 cells as determined by in-cell Western. It counts as cell-based. To be noted: Homo sapiens, SK-OV-3; SKOV3 cells, 1 hr; read-out: pAKT Inhibition in cell Western. As for the experimental part:
Dose Response in SKOV3 Cells as Determined by in-Cell Western
Twenty four hours later the media was removed and replaced with 100 ul media containing test compound or control compound and cells were returned to the incubator for 1 hr. At the end of the hour, the media was removed and the cells were washed once with PBS, then fixed for 20 minutes at room temperature in 4% formaldehyde in PBS. The formaldehyde was removed and cells were washed 5 times for 5 minutes with 100 ul of Permeabilization Buffer (PBS+0.1% Triton X-100) at room temperature with gentle shaking. The last wash was removed and replaced with 150 ul of Odyssey Blocking Buffer (Li-Cor, Lincoln, Nebr.) and incubated for 90 minutes at room temperature with gentle shaking.
The Blocking Buffer was then replaced with 50 ul of primary antibody mix (rabbit anti-Phospho-Akt(Ser473) at 1:100 (Cell Signaling Technology, Boston, Mass.) and mouse anti-tubulin at 1:5000 (Sigma Aldrich, St. Louis, Mo.) diluted in Odyssey Blocking Buffer) and incubated overnight at room temperature with gentle shaking.
The next morning, the antibody mix was removed and the wells were washed 5 times for 5 minutes with PBS+0.1% Tween-20. The last wash was replaced with 50 ul of secondary antibody mix (goat anti-rabbit-IRDye-680 and goat anti-mouse-IRDye-800 (Li-Cor), both diluted 1:1000 in Odyssey Blocking Buffer+0.2% Tween-20) and incubated for 1 hour at room temperature with gentle shaking. The antibody mix was removed and the wells were washed 5 times for 5 minutes in PBS+0.1% Tween-20, then 1 time with ddH2O.
The plates were scanned on an Odyssey machine (Li-Cor) with a 3 mm focus offset at an intensity of 8 in both channels and the data was analyzed using the Odyssey software.

pEC50, pIC50: −log10 of the molar value.

T1 sequence (P42336 whole entry): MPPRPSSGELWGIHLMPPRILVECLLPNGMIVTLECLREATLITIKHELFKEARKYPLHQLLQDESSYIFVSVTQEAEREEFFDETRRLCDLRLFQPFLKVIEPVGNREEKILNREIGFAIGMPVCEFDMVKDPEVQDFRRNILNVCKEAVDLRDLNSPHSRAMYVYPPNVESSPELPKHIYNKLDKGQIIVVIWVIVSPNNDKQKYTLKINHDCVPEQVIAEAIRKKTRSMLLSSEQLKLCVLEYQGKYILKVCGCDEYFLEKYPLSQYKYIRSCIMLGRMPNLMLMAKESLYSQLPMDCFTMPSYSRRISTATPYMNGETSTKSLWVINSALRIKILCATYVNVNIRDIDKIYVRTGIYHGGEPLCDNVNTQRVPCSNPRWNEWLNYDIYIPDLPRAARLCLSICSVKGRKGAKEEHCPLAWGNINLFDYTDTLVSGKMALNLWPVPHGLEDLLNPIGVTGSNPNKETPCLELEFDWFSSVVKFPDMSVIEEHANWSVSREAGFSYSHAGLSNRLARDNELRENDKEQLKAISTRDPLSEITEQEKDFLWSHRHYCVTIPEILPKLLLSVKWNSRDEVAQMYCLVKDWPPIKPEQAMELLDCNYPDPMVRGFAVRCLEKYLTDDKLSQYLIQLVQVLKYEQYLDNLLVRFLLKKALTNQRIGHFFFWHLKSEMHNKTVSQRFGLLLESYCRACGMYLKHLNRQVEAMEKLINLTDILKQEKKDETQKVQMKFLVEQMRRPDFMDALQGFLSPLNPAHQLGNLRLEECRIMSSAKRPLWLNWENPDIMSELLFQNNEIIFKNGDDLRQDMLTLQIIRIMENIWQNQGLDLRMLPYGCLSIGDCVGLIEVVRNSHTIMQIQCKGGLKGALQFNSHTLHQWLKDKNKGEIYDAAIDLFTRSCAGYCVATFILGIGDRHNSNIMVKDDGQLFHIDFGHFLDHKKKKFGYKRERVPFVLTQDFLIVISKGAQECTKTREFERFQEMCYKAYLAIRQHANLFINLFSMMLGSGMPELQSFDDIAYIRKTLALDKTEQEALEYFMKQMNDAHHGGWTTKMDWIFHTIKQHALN
T1 sequence (P27986 whole entry partner): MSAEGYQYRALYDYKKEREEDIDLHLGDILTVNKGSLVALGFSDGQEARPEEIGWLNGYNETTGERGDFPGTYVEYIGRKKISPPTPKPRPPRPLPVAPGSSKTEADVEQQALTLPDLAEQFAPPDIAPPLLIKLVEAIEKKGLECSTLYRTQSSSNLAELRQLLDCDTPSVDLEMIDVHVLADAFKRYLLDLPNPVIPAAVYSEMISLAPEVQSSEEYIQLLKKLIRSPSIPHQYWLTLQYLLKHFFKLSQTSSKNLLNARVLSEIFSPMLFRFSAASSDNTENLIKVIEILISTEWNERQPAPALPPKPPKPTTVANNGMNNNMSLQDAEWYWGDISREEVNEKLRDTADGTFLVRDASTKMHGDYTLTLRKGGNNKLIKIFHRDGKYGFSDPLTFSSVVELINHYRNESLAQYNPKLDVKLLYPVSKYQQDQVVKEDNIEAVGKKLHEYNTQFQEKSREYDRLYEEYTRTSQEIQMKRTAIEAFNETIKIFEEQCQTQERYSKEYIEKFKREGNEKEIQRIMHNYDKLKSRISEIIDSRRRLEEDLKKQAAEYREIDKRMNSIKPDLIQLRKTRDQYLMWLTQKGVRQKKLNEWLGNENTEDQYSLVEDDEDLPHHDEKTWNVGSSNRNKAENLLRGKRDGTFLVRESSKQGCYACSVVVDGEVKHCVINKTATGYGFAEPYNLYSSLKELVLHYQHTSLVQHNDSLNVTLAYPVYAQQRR

Regarding `Cn1cncc1/C=C/C(=O)CCC(=O)N1CCN(Cc2cc3nc(-c4cccc5[nH]ncc45)nc(N4CCOCC4)c3s2)CC1` [II-a-130, (E)-1-(4-((2-(1H-indazol-4-yl)-4-morpholinothieno[3,2-d]pyrimidin-6-yl)methyl)piperazin-1-yl)-6-(1-methyl-1H-imidazol-5-yl)hex-5-ene-1,4-dione], on PI3Kα (p110α/p85α), the pIC50 is 6.00 to 7.00. Moreover, the pEC50 in the assay on Phospho-Akt(Ser473) is 7.00 to 8.00.
In the same order, the values of `C=CC(=O)Nc1ccc(C(=O)N2CCN(Cc3cc4nc(-c5cccc6[nH]ncc56)nc(N5CCOCC5)c4s3)CC2)cc1` [II-a-117, N-(4-(4-((2-(1H-indazol-4-yl)-4-morpholinothieno[3,2-d]pyrimidin-6-yl)methyl)piperazine-1-carbonyl)phenyl)acrylamide] are 6.00 to 7.00 and 7.00 to 8.00.
For `C=C(CC)C(=O)CCC(=O)N1CCN(c2ccc(-c3ccnc4ccc(/C=C5\SC(=O)NC5=O)cc34)cn2)CC1` [V-20, (Z)-5-((4-(6-(4-(5-methylene-4-oxoheptanoyl)piperazin-1-yl)pyridin-3-yl)quinolin-6-yl)methylene)thiazolidine-2,4-dione] the same measures were above 8.00 and 7.00 to 8.00.
Consider `C=CC(=O)Nc1cccc(N2CC=C(c3cc(-c4cnc(N)nc4)nc(N4CCOCC4)c3)CC2)c1` [XII-48], for which the pIC50 at PI3Kα (p110α/p85α) is 6.00 to 7.00. Besides, the pEC50 with Phospho-Akt(Ser473) is 6.00 to 7.00.
In the case of `C=CC(=O)Nc1ccc(C#Cc2cc(-c3cnc(N)nc3)nc(N3CCOCC3)c2)cc1` [XII-4, N-(4-((2-(2-aminopyrimidin-5-yl)-6-morpholinopyridin-4-yl)ethynyl)phenyl)acrylamide], the pIC50 at PI3Kα (p110α/p85α) was 7.00 to 8.00. Moreover, in the assay on Phospho-Akt(Ser473), the pEC50 was 7.00 to 8.00.
In the case of `C/C=C/C(=O)CCC(=O)NCc1ccc(-c2cc3nc(-c4cccc5[nH]ncc45)nc(N4CCOCC4)c3s2)cc1` [II-a-115, (E)-N-(4-(2-(1H-indazol-4-yl)-4-morpholinothieno[3,2-d]pyrimidin-6-yl)benzyl)-4-oxohept-5-enamide], the pIC50 at PI3Kα (p110α/p85α) was 7.00 to 8.00. The pEC50 in the assay with Phospho-Akt(Ser473) is 6.00 to 7.00.
For `C=C(C)C(=O)c1ccc(C(=O)N2CC=C(c3cc(-c4cnc(N)nc4)nc(N4CCOCC4)c3)CC2)cc1` [XII-49, 1-(4-(4-(2-(2-aminopyrimidin-5-yl)-6-morpholinopyridin-4-yl)-1,2,3,6-tetrahydropyridine-1-carbonyl)phenyl)-2-methylprop-2-en-1-one] the same measures were 7.00 to 8.00 and 6.00 to 7.00.
For `C=CC(=O)Nc1ccc(N2CCN(C(=O)c3cc4nc(-c5cccc(O)c5)nc(N5CCOCC5)c4s3)CC2)cc1` [II-a-127, N-(4-(4-(2-(3-hydroxyphenyl)-4-morpholinothieno[3,2-d]pyrimidine-6-carbonyl)piperazin-1-yl)phenyl)acrylamide] the same measures were 6.00 to 7.00 and at least 8.00.
On to `CC(C)=CC(=O)CCC(=O)NCc1ccc(-c2cc3nc(-c4cccc(O)c4)nc(N4CCOCC4)c3s2)cc1` [II-a-122, N-(4-(2-(3-hydroxyphenyl)-4-morpholinothieno[3,2-d]pyrimidin-6-yl)benzyl)-6-methyl-4-oxohept-5-enamide], for which the pIC50 at PI3Kα (p110α/p85α) was 7.00 to 8.00. In addition, the pEC50 in the assay on Phospho-Akt(Ser473) is 6.00 to 7.00.
In the same order, the values of `C=CC(=O)Nc1ccc(C(=O)N2CCC(n3ncc4c(N5CCOCC5)nc(-c5cnc(N)nc5)nc43)CC2)cc1` [VII-12, N-(4-(4-(6-(2-aminopyrimidin-5-yl)-4-morpholino-1H-pyrazolo[3,4-d]pyrimidin-1-yl)piperidine-1-carbonyl)phenyl)acrylamide] are 6.00 to 7.00 and 7.00 to 8.00.
For `O=C(/C=C/c1ccccc1F)CCC(=O)N1CCN(Cc2cc3nc(-c4cccc5[nH]ncc45)nc(N4CCOCC4)c3s2)CC1` [II-a-140, (E)-1-(4-((2-(1H-indazol-4-yl)-4-morpholinothieno[3,2-d]pyrimidin-6-yl)methyl)piperazin-1-yl)-6-(2-fluorophenyl)hex-5-ene-1,4-dione] the same measures were 7.00 to 8.00 and 6.00 to 7.00.
For `C/C=C/C(=O)CCCC(=O)Nc1ccc(S(=O)(=O)Nc2cc(-c3ccc4nccc(-c5ccncc5)c4c3)cnc2OC)cc1` [X-1, (E)-N-(4-(N-(2-methoxy-5-(4-(pyridin-4-yl)quinolin-6-yl)pyridin-3-yl)sulfamoyl)phenyl)-5-oxooct-6-enamide] the same measures were 6.00 to 7.00 and at least 8.00.
Regarding `CC(C)=CC(=O)CCCC(=O)N(C)Cc1cc2nc(-c3cnc(N)nc3)nc(N3CCOCC3)c2s1` [II-a-174, N-((2-(2-aminopyrimidin-5-yl)-4-morpholinothieno[3,2-d]pyrimidin-6-yl)methyl)-N,7-dimethyl-5-oxooct-6-enamide], the pIC50 on PI3Kα (p110α/p85α) is 7.00 to 8.00. Also, the pEC50 with Phospho-Akt(Ser473) is at least 8.00.
For `COC/C=C(\C)C(=O)CCC(=O)N1CCN(Cc2cc3nc(-c4cccc5[nH]ncc45)nc(N4CCOCC4)c3s2)CC1` [II-a-161, (E)-1-(4-((2-(1H-indazol-4-yl)-4-morpholinothieno[3,2-d]pyrimidin-6-yl)methyl)piperazin-1-yl)-7-methoxy-5-methylhept-5-ene-1,4-dione] the same measures were 6.00 to 7.00 and at least 8.00.
In the case of `C=CC(=O)Nc1ccc(OCc2cc(-c3cnc(N)nc3)nc(N3CCOCC3)c2)cc1` [XII-5, N-(4-((2-(2-aminopyrimidin-5-yl)-6-morpholinopyridin-4-yl)methoxy)phenyl)acrylamide], the pIC50 on PI3Kα (p110α/p85α) is 6.00 to 7.00. Besides, in the assay with Phospho-Akt(Ser473), the pEC50 was 7.00 to 8.00.
For `C/C=C/C(=O)CCC(=O)N1CCC(O)(CCc2cc3nc(-c4cccc(O)c4)nc(N4CCOCC4)c3s2)CC1` [II-a-123, (E)-1-(4-hydroxy-4-(2-(2-(3-hydroxyphenyl)-4-morpholinothieno[3,2-d]pyrimidin-6-yl)ethyl)piperidin-1-yl)hept-5-ene-1,4-dione] the same measures were above 8.00 and 7.00 to 8.00.
With `CC(C)=CC(=O)c1ccc(C(=O)N2CC=C(c3cc(-c4cnc(N)nc4)nc(N4CCOCC4)c3)CC2)cc1` [XII-50, 1-(4-(4-(2-(2-aminopyrimidin-5-yl)-6-morpholinopyridin-4-yl)-1,2,3,6-tetrahydropyridine-1-carbonyl)phenyl)-3-methylbut-2-en-1-one], the pIC50 on PI3Kα (p110α/p85α) is 6.00 to 7.00. For the same compound, the pEC50 in the assay on Phospho-Akt(Ser473) is 6.00 to 7.00.
On to `Cc1ccccc1/C=C/C(=O)CCC(=O)N1CCN(Cc2cc3nc(-c4cccc5[nH]ncc45)nc(N4CCOCC4)c3s2)CC1` [II-a-138, (E)-1-(4-((2-(1H-indazol-4-yl)-4-morpholinothieno[3,2-d]pyrimidin-6-yl)methyl)piperazin-1-yl)-6-o-tolylhex-5-ene-1,4-dione], for which, on PI3Kα (p110α/p85α), the pIC50 was 7.00 to 8.00. Also, the pEC50 in the assay on Phospho-Akt(Ser473) is 6.00 to 7.00.
For `O=C(/C=C/c1ccccn1)CCC(=O)N1CCN(Cc2cc3nc(-c4cccc5[nH]ncc45)nc(N4CCOCC4)c3s2)CC1` [II-a-133, (E)-1-(4-((2-(1H-indazol-4-yl)-4-morpholinothieno[3,2-d]pyrimidin-6-yl)methyl)piperazin-1-yl)-6-(pyridin-2-yl)hex-5-ene-1,4-dione] the same measures were 6.00 to 7.00 and 7.00 to 8.00.
For `COc1ccc(-c2nn(C3CCN(C(=O)CCC(=O)/C=C/c4ccccc4)CC3)c3ncnc(N)c23)cc1OC` [XI-3, (E)-1-(4-(4-amino-3-(3,4-dimethoxyphenyl)-1H-pyrazolo[3,4-d]pyrimidin-1-yl)piperidin-1-yl)-6-phenylhex-5-ene-1,4-dione] the same measures were 6.00 to 7.00 and at most 6.00.
In the same order, the values of `O=C(/C=C/c1cccs1)CCC(=O)N1CCN(Cc2cc3nc(-c4cccc5[nH]ncc45)nc(N4CCOCC4)c3s2)CC1` [II-a-126, (E)-1-(4-((2-(1H-indazol-4-yl)-4-morpholinothieno[3,2-d]pyrimidin-6-yl)methyl)piperazin-1-yl)-6-(thiophen-2-yl)hex-5-ene-1,4-dione] are 6.00 to 7.00 and at least 8.00.
Take `C=CC(=O)Nc1ccc(S(=O)(=O)N2CCN(Cc3cc4nc(-c5cccc6[nH]ncc56)nc(N5CCOCC5)c4s3)CC2)cc1` [II-a-118, N-(4-(4-((2-(1H-indazol-4-yl)-4-morpholinothieno[3,2-d]pyrimidin-6-yl)methyl)piperazin-1-ylsulfonyl)phenyl)acrylamide]: at PI3Kα (p110α/p85α), the pIC50 was 6.00 to 7.00. Moreover, the pEC50 in the assay with Phospho-Akt(Ser473) was 6.00 to 7.00.
For the compound `O=C(/C=C/c1ccncc1)CCC(=O)N1CCN(Cc2cc3nc(-c4cccc5[nH]ncc45)nc(N4CCOCC4)c3s2)CC1` [II-a-141, (E)-1-(4-((2-(1H-indazol-4-yl)-4-morpholinothieno[3,2-d]pyrimidin-6-yl)methyl)piperazin-1-yl)-6-(pyridin-4-yl)hex-5-ene-1,4-dione], the pIC50 on PI3Kα (p110α/p85α) is 7.00 to 8.00. Further, the pEC50 in the assay on Phospho-Akt(Ser473) is 6.00 to 7.00.
